Measurements as given in patent US8987313B2, “Inhibitors of cytochrome P450” (Gilead Sciences, Inc., priority 2010, dated 2015).
Like-named read-outs stand apart in the source and are kept apart here.

Molecular target: CYP3A4 (Homo sapiens (Human), UniProt P08684)
Assay: CYP3A Inhibition Assay (human hepatic microsomes; midazolam 1'-hydroxylase and testosterone 6β-hydroxylase activities)
Conditions: pooled human hepatic microsomal fraction
Description: Pooled (n≧15 donors) human hepatic microsomal fraction was obtained from BD-Gentest (Woburn, Mass.) who also supplied hydroxy-terfenadine, 4′-hydroxydiclofenac and NADPH regenerating system. Ritonavir was prepared from commercial Norvir® oral solution (Abbott Laboratories, Abbott Park, Ill.). Other reagents were from Sigma-Aldrich (St. Louis, Mo.) and included terfenadine, fexofenadine, BRL 15572, diclofenac and mefenamic acid.
Incubations were performed in duplicate in 50 mM potassium phosphate buffer, pH 7.4 with NADPH regenerating system used as described by the manufacturer. […] The final substrate concentrations used were equal to the apparent Km values for the activities determined under the same conditions. Inhibitors were dissolved in DMSO, and the final concentration of DMSO, from both substrate and inhibitor vehicles, was 1% (v/v). Incubations were performed at 37° C. with shaking and were initiated by addition of substrate. Aliquots were then removed at […]. Samples were quenched by treatment with an acetonitrile, formic acid, water (94.8%/0.2%/5%, v/v/v) mixture containing internal standard. Precipitated protein was removed by centrifugation at 3000 rpm for […] and aliquots of the supernatant were then subjected to LC-MS analysis.
The LC-MS system consisted of a Waters Acquity UPLC, with a binary solvent manager and a refrigerated (8° C.) sample organizer and sample manager, interfaced to a Micromass Quattro Premier tandem mass spectrometer operating in electrospray ionization mode. The column was a Waters Acquity UPLC BEH C18 2.1×50 mm, […]. Mobile phases consisted of mixtures of acetonitrile, formic acid and water, the composition for mobile phase A being 1%/0.2%/98.8% (v/v/v) and that for mobile phase B being 94.8%/0.2%/5% (v/v/v). The injection volumes were 5 μL and the flow rate was 0.8 mL/min. Concentrations of metabolites were determined by reference to standard curves generated with authentic analytes under the same conditions as the incubations.
IC50 values (the concentration of inhibitor reducing CYP3A activity by 50%) were calculated by non-linear regression using GraphPad Prism 4.0 software and a sigmoidal model.
For midazolam hydroxylase determination the final concentrations of microsomal protein and […] substrate were 0.25 mg/mL and 2.5 μM, respectively, and the LC-MS internal standard was 1α-hydroxytriazolam. […] After incubation at 37° C. for 5 minutes, metabolic reactions were terminated by treatment with quench solution containing the appropriate internal standard and were subsequently centrifuged before aliquots of the supernatant were removed and diluted with 0.1% (v/v) formic acid for LC-MS analysis.
For LC-MS analysis the column was a Phenomenex Synergi Max RP 4 μm column (50×2.0 mm) and the injection volume was 5 μL. The MS/MS ion current metabolite/internal standard peak area ratios (PAR) were measured on an Applied Biosystems SciEx API4000 triple quadrupole mass spectrometer coupled to a Leap CTC PAL autosampler with a 20 μL loop and a Shimadzu LC pump with a 25 μL mixer.

[1] = read-out: CYP3A4 IC50 (μM) (midazolam), midazolam 1'-hydroxylase activity
[2] = read-out: CYP3A4 IC50 (μM) (testosterone), testosterone 6β-hydroxylase activity

Sequence of CYP3A4 (P08684 whole entry): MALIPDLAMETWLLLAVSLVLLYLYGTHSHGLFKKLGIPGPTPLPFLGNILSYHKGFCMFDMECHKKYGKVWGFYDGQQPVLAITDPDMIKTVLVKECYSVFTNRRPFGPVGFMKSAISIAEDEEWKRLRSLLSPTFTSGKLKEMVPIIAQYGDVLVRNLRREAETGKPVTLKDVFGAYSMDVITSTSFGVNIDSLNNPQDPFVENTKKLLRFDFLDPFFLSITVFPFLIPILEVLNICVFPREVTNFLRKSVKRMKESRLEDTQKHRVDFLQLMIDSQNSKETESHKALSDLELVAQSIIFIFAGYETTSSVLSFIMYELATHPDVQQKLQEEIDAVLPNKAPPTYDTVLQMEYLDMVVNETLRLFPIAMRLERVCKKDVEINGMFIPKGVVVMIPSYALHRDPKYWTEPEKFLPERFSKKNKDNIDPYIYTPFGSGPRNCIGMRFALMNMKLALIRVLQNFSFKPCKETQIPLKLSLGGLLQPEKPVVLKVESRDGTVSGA

Row | SMILES | IC50 [1] | IC50 [2]
1 | CC(C)c1nc(CN(C)C(=O)N2C[C@H](O)C[C@H]2C(=O)N[C@H](CC[C@H](Cc2ccccc2)NC(=O)OCc2cncs2)Cc2ccccc2)cs1 [Compound 5] | 0.16 µM | 0.23 µM
2 | CC(C)c1nc(CN(C)C(=O)N2C[C@@H](O)C[C@H]2C(=O)N[C@H](CC[C@H](Cc2ccccc2)NC(=O)OCc2cncs2)Cc2ccccc2)cs1 [Compound 8] | 0.17 µM | 0.24 µM
3 | CC(C)c1nc(CN(C)C(=O)N2C[C@H](O)C[C@H]2C(=O)N[C@@H](CC[C@@H](Cc2ccccc2)NC(=O)OCc2cncs2)Cc2ccccc2)cs1 [Compound 11] | 0.12 µM | 0.3 µM
4 | CC(C)c1nc(CN(C)C(=O)N2CS(=O)(=O)C[C@H]2C(=O)N[C@H](CC[C@H](Cc2ccccc2)NC(=O)OCc2cncs2)Cc2ccccc2)cs1 [Compound 18] | 0.16 µM | 0.26 µM
5 | CC(C)c1nc(CN(C)C(=O)NC2(C(=O)N[C@H](CC[C@H](Cc3ccccc3)NC(=O)OCc3cncs3)Cc3ccccc3)CCN(C)CC2)cs1 [Compound 21] | 0.19 µM | 0.34 µM
6 | CC(C)c1nc(CN(C)C(=O)N2CCN(C)C[C@H]2C(=O)N[C@H](CC[C@H](Cc2ccccc2)NC(=O)OCc2cncs2)Cc2ccccc2)cs1 [Compound 25] | 0.14 µM | 0.3 µM
7 | CC(C)c1nc(CN(C)C(=O)N2C[C@@H](N)C[C@H]2C(=O)N[C@H](CC[C@H](Cc2ccccc2)NC(=O)OCc2cncs2)Cc2ccccc2)cs1 [Compound 29] | 0.19 µM | 0.31 µM
8 | CN[C@H]1C[C@@H](C(=O)N[C@H](CC[C@H](Cc2ccccc2)NC(=O)OCc2cncs2)Cc2ccccc2)N(C(=O)N(C)Cc2csc(C(C)C)n2)C1 [Compound 30] | 0.17 µM | 0.36 µM
9 | CC(C)c1nc(CN(C)C(=O)N2C[C@@H](N(C)C)C[C@H]2C(=O)N[C@H](CC[C@H](Cc2ccccc2)NC(=O)OCc2cncs2)Cc2ccccc2)cs1 [Compound 31] | 0.15 µM | 0.33 µM
10 | CC(=O)N[C@H]1C[C@@H](C(=O)N[C@H](CC[C@H](Cc2ccccc2)NC(=O)OCc2cncs2)Cc2ccccc2)N(C(=O)N(C)Cc2csc(C(C)C)n2)C1 [Compound 36] | < 0.1 µM | 0.37 µM
11 | CC(C)c1nc(CN(C)C(=O)N2CCC[C@H]2C(=O)N[C@H](CC[C@H](Cc2ccccc2)NC(=O)OCc2cncs2)Cc2ccccc2)cs1 [Compound 39] | 0.13 µM | 0.26 µM
12 | CC(C)c1nc(CN(C)C(=O)N2CCC[C@@H]2C(=O)N[C@H](CC[C@H](Cc2ccccc2)NC(=O)OCc2cncs2)Cc2ccccc2)cs1 [Compound 42] | 0.11 µM | 0.25 µM
13 | CC(C)c1nc(CN(C)C(=O)N2Cc3nc[nH]c3C[C@H]2C(=O)N[C@H](CC[C@H](Cc2ccccc2)NC(=O)OCc2cncs2)Cc2ccccc2)cs1 [Compound 49] | 0.19 µM | 0.37 µM
